According to publication PMC6254286, “Quantitative Structure − Antiprotozoal Activity Relationships of Sesquiterpene Lactones ^†” (Molecules, 2009):
Read-outs that look alike come from different tables or passages of the source.

Tests used:
[1] = Cytotoxicity against L6 cells (Alamar blue); conditions: rat; for IC50: IC50 Cytotoxicity (L6), L6 rat skeletal myoblasts, 72 h, mean of two independent measurements
Procedure: (§1) Trypanosoma brucei rhodesiense and cytotoxicity against L6 cells. Minimum Essential Medium with Earle’s salts (50 µL) supplemented with 0.2 mM 2-mercapto-ethanol, 1 mM Na-pyruvate and 15% heat-inactivated horse serum was added to each well of a 96-well microtiter plate. […] Then 10^4 bloodstream forms of Trypanosoma brucei rhodesiense STIB 900 in 50 µL of medium were added to each well and the plate incubated at 37°C under a 5% CO2 atmosphere for 72 hours. […] The plate was then read in a Spectramax Gemini XS microplate fluorometer (Molecular Devices Corporation, Sunnyvale, CA, USA) using an excitation wavelength of 536 nm and emission wavelength of 588 nm. Fluorescence development was measured and expressed as percentage of the control. Data were transferred into the graphic programme Softmax Pro (Molecular Devices) which calculated IC50 values. Cytotoxicity was assessed using a similar protocol and rat skeletal myoblasts (L6 cells). […] All following steps were according to the T. b. rhodesiense protocol.

[2] = tested on: rat skeletal myoblasts (L6 cells); test: Cytotoxicity against L6 cells (Alamar blue)
Procedure: as §1

[3] = tested on: T. cruzi Tulahuen strain C2C4; test: In vitro activity against T. cruzi in L-6 host cells (beta-galactosidase/CPRG); format: cell-based, Trypanosoma cruzi; conditions: Tulahuen C2C4 in L-6 cells, 96 h, mean of two independent measurements, read-out: IC50 T. cruzi (Tcr)
Procedure: Trypanosoma cruzi. Rat skeletal myoblasts (L-6 cells) were seeded in 96-well microtiter plates at 2,000 cells/well in 100 µL RPMI 1640 medium with 10% FBS (fetal bovine serum) and 2 mM L-glutamine. After 24 hours the medium was removed and replaced by 100 µL per well containing 5,000 trypomastigote forms of T. cruzi Tulahuen strain C2C4 containing the β-galactosidase (Lac Z) gene. Fortyeight hours later the medium was removed from the wells and replaced by […] fresh medium with or without a serial drug dilution. Seven 3-fold dilutions were used covering a range from […]. Each drug was tested in duplicate. After 96 hours of incubation the plates were inspected under an inverted microscope to assure growth of the controls and sterility. Then the substrate CPRG/ Nonidet (50 µL) was added to all wells. A colour reaction developed within 2-6 hours and could be read photometrically at 540 nm.

[4] = tested on: Trypanosoma brucei rhodesiense STIB 900; test: In vitro activity against T. brucei rhodesiense bloodstream forms (Alamar blue); format: cell-based; conditions: for IC50: bloodstream forms STIB 900, 72 h, mean of two independent measurements, read-out: IC50 T. brucei rhodes. (Tbr)
Procedure: as §1

[5] = tested on: K1 strain of P. falciparum; test: Antiplasmodial [3H]-hypoxanthine incorporation assay; format: cell-based, Plasmodium falciparum
Procedure: Plasmodium falciparum. Antiplasmodial activity was determined using the K1 strain of P. falciparum (resistant to chloroquine and pyrimethamine). A modification of the [3H]-hypoxanthine incorporation assay was used. Briefly, infected human red blood cells (final parasitaemia and haematocrit were 0.3% and 1.25%, respectively) in RPMI 1640 medium with 5% Albumax were exposed to serial drug dilutions in microtiter plates. After 48 hours of incubation at 37°C in a reduced oxygen atmosphere, 0.5 mCi 3H-hypoxanthine was added to each well. Cultures were incubated for a further 24 h before they were harvested onto glass-fiber filters and washed with distilled water. The radioactivity was counted using a BetaplateTM liquid scintillation counter (Wallac, Zurich, Switzerland). […] From the sigmoidal inhibition curves IC50 values were calculated. Assays were run in duplicate and repeated once.

[6] = tested on: Leishmania donovani amastigotes (strain MHOM/ET/67/L82); test: L. donovani axenic amastigote assay (resazurin); format: cell-based; conditions: for IC50: pH 5.4, 72 h, mean of two independent measurements, read-out: IC50 L. donovani (Ldon)
Procedure: Leishmania donovani (axenic amastigote assay). […] Serial drug dilutions in duplicates were prepared covering a range from 30 to 0.041 µg/mL. […] The compounds used as positive controls in the various bioassays (see Table 1) were of commercial origin, with the exception of melarsoprol, which was a gift from WHO. Their purity (generally > 95%) was specified by the manufacturers.

[7] = L6 cells (rat skeletal myoblasts)
[8] = protozoa, especially Tbr, versus L6 mammalian cells
[9] = Trypanosoma cruzi, TULAHUEN, L6, 96 h
[10] = Plasmodium falciparum, K1, K1 strain (resistant to chloroquine and pyrimethamine), mean of two independent measurements, read-out: IC50 P. falciparum (Pfc)
[11] = Leishmania donovani, 72 h, pH 5.4, axenic amastigotes

SMILES | IC50 at 72 h [1, 7] [µM] | IC50 [3, 9] [µM] | IC50 ([4]; Trypanosoma brucei, 72 h) [µM] | IC50 [5, 10] [µM] | IC50 [6, 11] [µM] | IC50 [1] [µM] | further results
C=C1C(=O)OC2CC(C)C3(C=CC(C)=O)OC3CC12 (stereo not drawn) [Compound 19, 8-epixanthatin-1,5-epoxide] | 22.1 | 11.3 | 0.33 | 6.51 | 0.599 |  | antiparasitic activity compared with cytotoxicity (in words) [2, 8]: significantly higher levels of antiparasitic activity, especially against Tbr, than cytotoxicity; selectivity index (SI) with respect to Tbr ([4]; ratio of cytotoxic IC50 (L6) over IC50 against Tbr): 67; selectivity index (SI) with respect to Ldon ([6]; ratio of cytotoxic IC50 (L6) over IC50 against Ldon): 36
C=C1C(=O)OC2C1CCC1(C)C(O)CCC(=C)C21 (stereo not drawn) [Compound 32] |  |  |  |  |  |  | IC50 ([2]; read-out: IC50 Cytotoxicity (L6), L6 rat skeletal myoblasts, 72 h, mean of two independent measurements): 25.6 µM; IC50 [3]: 26.2 µM; IC50 [4]: 1.11 µM; IC50 ([5]; K1 strain (resistant to chloroquine and pyrimethamine), mean of two independent measurements, read-out: IC50 P. falciparum (Pfc)): 13.6 µM; IC50 ([6]; axenic amastigotes): 7.34 µM
C=C1C(=O)OC2CC(C)C(C=CC(C)=O)=CCC12 (stereo not drawn) [Compound 18] | 30.2 |  | 2.92 | 7.83 | 17.6 |  | antiparasitic activity compared with cytotoxicity (in words) [2]: significantly higher levels of antiparasitic activity, especially against Tbr, than cytotoxicity; IC50 ([3]; Trypanosoma cruzi, L6): 26.2 µM
C=C1C(=O)OC2CC3(C)CCCC(=C)C3CC12 (stereo not drawn) [Compound 25] |  | 22.3 | 23.6 |  | > 14 |  | IC50 at 72 h [1]: 4.48 µM; antiparasitic activity compared with cytotoxicity (in words) [2, 8]: considerably more toxic against the mammalian cells than against the protozoa
C=C1C(=O)OC2CC3(C)CC(O)CC(=C)C3CC12 (stereo not drawn) [Compound 26] | 0.948 | 24.8 | 7.8 |  | > 4 |  | antiparasitic activity compared with cytotoxicity (in words) [2, 8]: considerably more toxic against the mammalian cells than against the protozoa
C=C1C(=O)OC2C=C(C)CCC3OC3(CO)CC(OC(=O)C3(C)OC3C)C12 (stereo not drawn) [Compound 36] |  | 25.6 | 14.3 | 9.44 | 2.73 | 13.6 | 
C=C1C(=O)OC2CC(C)C3C(O)CC(OC(=O)C(C)=CC)C3(C)C(O)C12 (stereo not drawn) [Compound 12] |  | 49.2 | 11 | 10.6 | 18 | 16.7 | 
C=C1CC(O)CC2(C)CC3OC(=O)C(C)C3CC12 (stereo not drawn) [Compound 28] | 187 | > 120 | 341 | > 20 | > 120 |  | 
C=C1C(=O)OC2CC(C)C3C=CC(=O)C3(C)C(OC(=O)C(C)C)C12 (stereo not drawn) [Compound 3] |  |  | 0.105 |  |  | 1.03 | IC50 ([3]; Trypanosoma cruzi, L6): 1.57 µM; IC50 ([5]; Plasmodium falciparum, K1, read-out: IC50 P. falciparum (Pfc)): 0.7 µM; IC50 ([6]; Leishmania donovani, axenic amastigotes): 0.837 µM
C=C1C(=O)OC2CC3(C)C(CCC(C)=O)C3CC12 (stereo not drawn) [Compound 20] |  | 39 | 15.9 | 12.7 | 14.6 |  | IC50 at 72 h [1]: 19.8 µM
CC1CC2OC(=O)C34CC5(C)C=CC13C(CC24)O5 (stereo not drawn) [Compound 23] |  | > 120 | 162 | > 20 | 15.4 | > 365 | 
C=C1C(=O)OC2CC(C)C3C(OC(C)=O)CC(O)C3(C)CC12 (stereo not drawn) [Compound 10] |  | 20.4 | 6.71 | 6.46 | 12.2 | 4.39 | 
C=C1C(=O)OC2CC(C)C3C(OC(C)=O)CC(OC(C)=O)C3(C)CC12 (stereo not drawn) [Compound 14] | 8.43 | 14.7 | 1.17 | 8.94 | 4.26 |  | 
